Literature values as cited in patent US6416998B1, “Plasmid encoding a modified steroid hormone” (Baylor College of Medicine, priority 1992, dated 2002).

Legend:
Settings in all cases: cited from earlier work
[1] = target: T1, chicken progesterone receptor (Gallus gallus, UniProt P07812)
T1 sequence (P07812 1-786): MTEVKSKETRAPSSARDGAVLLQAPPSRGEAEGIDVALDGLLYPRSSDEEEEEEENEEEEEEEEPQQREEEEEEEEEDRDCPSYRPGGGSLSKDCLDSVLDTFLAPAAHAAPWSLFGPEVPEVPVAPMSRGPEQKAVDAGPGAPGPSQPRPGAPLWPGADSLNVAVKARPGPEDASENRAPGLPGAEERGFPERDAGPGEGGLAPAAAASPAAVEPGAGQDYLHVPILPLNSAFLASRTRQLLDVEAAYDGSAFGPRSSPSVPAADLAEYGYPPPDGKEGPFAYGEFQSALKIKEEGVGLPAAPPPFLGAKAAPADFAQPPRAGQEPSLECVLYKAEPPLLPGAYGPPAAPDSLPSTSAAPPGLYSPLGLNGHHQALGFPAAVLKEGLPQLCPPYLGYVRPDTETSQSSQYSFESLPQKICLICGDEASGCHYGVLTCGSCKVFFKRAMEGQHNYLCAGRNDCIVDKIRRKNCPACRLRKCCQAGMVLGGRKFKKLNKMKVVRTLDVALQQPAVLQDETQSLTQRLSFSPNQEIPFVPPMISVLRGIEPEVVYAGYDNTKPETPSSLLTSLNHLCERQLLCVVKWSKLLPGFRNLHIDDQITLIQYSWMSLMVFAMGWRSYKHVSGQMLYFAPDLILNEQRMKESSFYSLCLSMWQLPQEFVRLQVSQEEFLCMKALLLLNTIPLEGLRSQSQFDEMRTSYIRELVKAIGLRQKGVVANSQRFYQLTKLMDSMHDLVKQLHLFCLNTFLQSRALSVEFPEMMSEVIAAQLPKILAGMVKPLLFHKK

[2] = target: T2, rat progesterone receptor (Rattus norvegicus, UniProt Q63449)
T2 sequence (Q63449 1-923): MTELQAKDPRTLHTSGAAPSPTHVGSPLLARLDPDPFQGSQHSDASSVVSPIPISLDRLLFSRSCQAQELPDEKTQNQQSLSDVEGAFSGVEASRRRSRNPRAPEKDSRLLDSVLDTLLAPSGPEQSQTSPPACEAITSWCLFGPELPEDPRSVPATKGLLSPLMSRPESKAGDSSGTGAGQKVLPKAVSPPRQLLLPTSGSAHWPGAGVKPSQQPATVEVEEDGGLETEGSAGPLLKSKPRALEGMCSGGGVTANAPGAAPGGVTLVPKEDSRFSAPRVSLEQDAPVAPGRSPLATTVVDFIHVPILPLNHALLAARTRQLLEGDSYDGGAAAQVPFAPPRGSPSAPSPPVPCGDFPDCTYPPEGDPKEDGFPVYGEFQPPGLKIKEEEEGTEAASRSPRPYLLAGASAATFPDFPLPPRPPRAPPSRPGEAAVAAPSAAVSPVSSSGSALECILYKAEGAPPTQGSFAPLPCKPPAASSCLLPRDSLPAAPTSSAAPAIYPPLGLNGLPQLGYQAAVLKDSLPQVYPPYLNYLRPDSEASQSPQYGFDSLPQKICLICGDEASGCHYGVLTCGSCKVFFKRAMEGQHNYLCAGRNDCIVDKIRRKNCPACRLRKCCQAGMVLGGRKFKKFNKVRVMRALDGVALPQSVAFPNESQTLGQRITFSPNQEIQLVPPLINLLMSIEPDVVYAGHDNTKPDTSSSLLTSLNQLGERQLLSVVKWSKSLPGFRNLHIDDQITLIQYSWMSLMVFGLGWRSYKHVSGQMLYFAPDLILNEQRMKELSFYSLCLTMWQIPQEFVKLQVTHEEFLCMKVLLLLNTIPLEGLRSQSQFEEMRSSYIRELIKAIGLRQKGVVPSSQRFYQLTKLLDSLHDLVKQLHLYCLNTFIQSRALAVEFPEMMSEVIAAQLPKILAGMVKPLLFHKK

[3] = target: T3, human progesterone receptor (Homo sapiens, UniProt P06401)
T3 sequence (P06401 1-933): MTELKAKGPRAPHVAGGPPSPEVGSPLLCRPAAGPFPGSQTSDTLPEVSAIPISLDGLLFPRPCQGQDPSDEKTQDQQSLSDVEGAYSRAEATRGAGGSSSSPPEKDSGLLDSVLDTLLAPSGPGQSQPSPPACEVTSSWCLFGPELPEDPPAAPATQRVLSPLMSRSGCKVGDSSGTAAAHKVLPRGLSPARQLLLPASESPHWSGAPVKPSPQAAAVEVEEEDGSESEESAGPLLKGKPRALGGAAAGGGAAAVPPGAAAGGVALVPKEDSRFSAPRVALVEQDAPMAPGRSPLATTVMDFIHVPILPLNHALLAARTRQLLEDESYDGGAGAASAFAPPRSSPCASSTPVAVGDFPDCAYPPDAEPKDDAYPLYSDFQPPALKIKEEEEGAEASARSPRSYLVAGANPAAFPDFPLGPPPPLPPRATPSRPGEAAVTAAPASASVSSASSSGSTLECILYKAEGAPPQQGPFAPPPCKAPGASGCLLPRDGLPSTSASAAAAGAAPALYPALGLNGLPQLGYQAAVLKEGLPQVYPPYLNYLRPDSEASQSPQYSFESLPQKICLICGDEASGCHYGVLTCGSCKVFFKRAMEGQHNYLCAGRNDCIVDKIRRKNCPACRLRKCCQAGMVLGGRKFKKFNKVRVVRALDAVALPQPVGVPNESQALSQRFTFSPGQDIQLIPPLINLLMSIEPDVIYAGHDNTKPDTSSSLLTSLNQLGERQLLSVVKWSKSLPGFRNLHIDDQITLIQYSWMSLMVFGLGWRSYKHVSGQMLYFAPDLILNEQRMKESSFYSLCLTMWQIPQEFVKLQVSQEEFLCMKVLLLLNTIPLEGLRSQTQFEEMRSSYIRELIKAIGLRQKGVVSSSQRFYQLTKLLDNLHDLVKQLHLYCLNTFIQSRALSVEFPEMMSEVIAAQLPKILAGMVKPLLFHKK

[4] = target: T4, Vitamin D receptor (Homo sapiens, UniProt P11473)
T4 sequence (P11473 1-427): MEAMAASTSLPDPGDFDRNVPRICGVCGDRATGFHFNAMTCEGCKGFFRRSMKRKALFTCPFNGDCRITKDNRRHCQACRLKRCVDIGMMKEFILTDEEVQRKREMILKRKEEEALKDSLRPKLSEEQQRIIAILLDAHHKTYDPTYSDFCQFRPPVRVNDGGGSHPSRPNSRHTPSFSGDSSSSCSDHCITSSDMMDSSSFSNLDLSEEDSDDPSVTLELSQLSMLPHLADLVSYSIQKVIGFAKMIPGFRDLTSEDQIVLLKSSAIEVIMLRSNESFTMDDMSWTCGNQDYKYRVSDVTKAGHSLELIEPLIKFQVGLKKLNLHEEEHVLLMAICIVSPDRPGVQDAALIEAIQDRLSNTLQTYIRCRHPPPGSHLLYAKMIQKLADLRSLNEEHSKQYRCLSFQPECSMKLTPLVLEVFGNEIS

| SMILES | binding [1] | binding [2] | binding [3] | receptor activation [4] |
| --- | --- | --- | --- | --- |
| CC(=O)[C@H]1CC[C@H]2[C@@H]3CC[C@H]4CC(=O)CC[C@]4(C)[C@H]3CC[C@]12C [5α-pregnane-3,20-dione] | binds extremely well | binds extremely well | does not bind or binds very poorly |  |
| C=C1CC[C@H](O)C/C1=C/C=C1\CCC[C@]2(C)[C@@H]([C@H](C)CCC(O)C(C)(C)O)CC[C@@H]12 (stereo partly shown) [24,25-dihydroxy-Vitamin D] |  |  |  | does not |
